Measurements published in US11078232B2, “Preparation and use of molecular site targeted and activated kinase inhibitor” (Yafei Shanghai Biology Medicine Science & Technology Co. …, priority 2017, dated 2021).
Read-outs that look alike come from different tables or passages of the source. Residues, ends and D or L forms follow the SMILES beside them. *: point of attachment. Doxorubicin(3'-N) = COc1cccc2c1C(=O)c1c(O)c3c(c(O)c1C2=O)C[C@@](O)(C(=O)CO)C[C@@H]3O[C@H]1C[C@H](N*)[C@H](O)[C@H](C)O1; X1 = CN(CCNC(=O)c1cc(Oc2ccc(NC(=O)Nc3ccc(Cl)c(C(F)(F)F)c3)cc2)ccn1)*; Hexanoyl(6-maleimido) = O=C1C=CC(=O)N1CCCCCC(=O)*

Legend:
D121 lung cancer cells = assay: D121 lung cancer immunotherapy model; conditions: for Tumor inhibition rate/% (week 7) / CD8: CD45 (%): single agent; for Tumor inhibition rate/% (week 7): i.v. ⅙ MTD once a week for 4 weeks; for CD8: CD45 (%): tumor CD8+ T cells among CD45-positive cells
Experimental: (1) D121 lung cancer cells purchased from ATCC were cultured in DMEM medium containing 10% fetal bovine serum at 37° C. and 5% CO2, and the cells were digested with EDTA trypsin according to routine use, and passed two to three times a week for placement.
(2) Animals: C57 BALB/C mice, 6-8 weeks old, female, weighing about 18-22 g, purchased from Shanghai SLAC Laboratory Animal Co., Ltd.
3) Immunization: Mice were intraperitoneally injected with 100 μL of 5×10^5 D121 lung cancer cells that died by repeated freeze-thaw cycles, and immunized 3 times with an interval of 2 weeks.
4) Cell seeding: Collect the tumor cells in logarithmic growth phase, adjust the D121 cell concentration to (1×10^7/ml) with DMEM basal medium, 0.1 ml of the cell suspension was inoculated to the right side of each mouse subcutaneously with a 1 ml syringe. […] Tumor volume was observed and measured, and the average tumor volume reached 100-200 mm^3 about 7 days after inoculation, that is, tumor cell-bearing mice were grouped and administered. The immunized group in Table 9 was immunized with D121 lung cancer cells, and the D121 dead tumor cell immunized group was injected with physiological saline as a control.
The immunosuppressive regulatory point protein Anti-PD-L1 antibody was injected twice a week. A total of two weeks.
6) Experimental observation: During the whole experiment, the use and observation of experimental animals were carried out in accordance with the regulations of AAALAC. The experimental animals were observed daily after inoculation of tumor cells, and their onset and death were recorded. During the routine experiment, all experimental animals were monitored and recorded for behavior, feeding, water intake, weight change, hair shine and other abnormalities.
(7) Analysis of tumor CD8+ T cells (T lymphocyte subsets). Tumor tissues were ground and single cancer cells were isolated by filtration using 40 μm Nylon cell strainer, lysed twice with blood cell lysis buffer for 20 min, washed twice with 1% BSA-PBS buffer, centrifuged, and resuspended, and then the cells were counted again. 1×10^5 cells were incubated with leukocyte co-antigen CD45-PE and CD8-FITC-labeled antibody for 1 hour at room temperature in the dark, and then analyzed the proportion of T lymphocyte antigen (CD8) in leukocyte common antigen (CD45)-positive cells by flow cytometry.

BALB/C mouse = assay: MTD (maximum tolerated dose) acute toxicity in mice; format: in vivo; conditions: intravenous; for Number of deaths: 10 mice per group; for Death dose: observed 17 days
Source text: (§1) Test purpose: to investigate the acute toxicity of highly activated compounds by targeted site molecules of the invention by measuring the MTD (maximum tolerated dose) experiment in mice.
(§2) The injections of each drug and the control drug were uniformly dissolved using water for injection, and diluted to the corresponding dose with physiological saline during the test.
(§3) Methods and results: […] BALB/C mice, weighing 19-21 g, were randomly divided into 10 groups, with 10 mice in each group. […] A control test of the saline group and the adriamycin group injection (commercially available, Beijing Yue kang) was carried out, and the injection volume of each mouse was 0.2 ml. […] On the D3, D5, and D14, blood samples were taken for whole blood count.

CT26 tumor cells [1] = assay: CT26 immunotherapy model (Example 15); format: in vivo, mice
Experimental: (§4) 1) CT26 tumor cells were purchased from ATCC, and the cells were cultured using a 10% fetal bovine serum DMEM medium at 37° C., 5% CO2. The cells were passaged every 3 days and the cells were used within 15 generations.
(§5) 2) Tumor production: 10^6 live CT26 tumor cells were injected subcutaneously into the back of tumor-immunized […], and treatment was started when the tumor grew to about 0.3-0.4 cm. The tumor size (mm^3) of the mice was recorded and compared with the solvent control group. The tumor inhibition rate on day 42 was calculated in the solvent control group.
(§6) 3) Treatment process: IV injection is used, and the drug is used at a dose of ⅓ MTD once a week Immunosuppressive IV injection treatment once a week for a total of 6 weeks of treatment.
(§7) 4) The cure rate of 10 in each group was counted. After 50 days, the cured mice and wild groups were inoculated […] to detect recurrence.

CT26 tumor cells [2] = assay: CT26 treatment model (Example 17); format: in vivo, mice; conditions: CT26 model as in Example 15
Experimental: as §4, §5, §6, §7
The CT26 immunotherapy model was constructed as in Example 15, and the pharmacodynamic and immunotherapeutic effects of the compounds S4-S6, S9-S12 and S15-S18 in the CT26 treatment model were tested.

[3] = MTD (maximum tolerated dose) acute toxicity in mice; format: in vivo, mouse; conditions: mouse, in vivo, BALB/C mice, intravenous, observed 17 days; for MTD at 17 days: female
Source text: as §1, §2, §3

[4] = Solid stability, 60° C. for 10 days in the dark (HPLC); format: physicochemical
Experimental: The test was carried out by leaving it at 60° C. for 10 days in the dark. The ratio of the change in the content of the compound to the compound at time 0 was measured by HPLC, and the stability value (%) was calculated.

[5] = solid, 60° C., 10 days, dark, content versus time 0

SMILES	effect on T cells (D121 lung cancer cells; flow cytometry, discussion of Table 6)	Tumor inhibition rate/% (week 7) (D121 lung cancer cells)	CD8: CD45 (%) (D121 lung cancer cells; flow cytometry)	Number of deaths (BALB/C mouse)	Death dose (BALB/C mouse)	Cure rate % (CT26 tumor cells [1]; 10 in each group)	Number of cures (CT26 tumor cells [1]; 10 in each group)	Tumor inhibition rate % (Day 42) (CT26 tumor cells [1]; IV ⅓ MTD once a week, 6 weeks)	CD8: CD45 (%) (CT26 tumor cells [2])	Number of animals cured (CT26 tumor cells [2])	Tumor inhibition rate/% (at week 7) (CT26 tumor cells [2])	MTD at 17 days [3]	Stability verdict (stable / unstable) ([4]; solid, 60° C., 10 days, dark)	Stability(%) [4, 5]	Stability verdict (stable / unstable) [4]	Stability(%) [4]	Recurrence rate/% (at week 10) (CT26 tumor cells [2])	MTD [3]
COc1cccc2c1C(=O)c1c(O)c3c(c(O)c1C2=O)C[C@@](O)(C(=O)CO)C[C@@H]3O[C@H]1C[C@H](N)[C@H](O)[C@H](C)O1 [Adriamycin, reference compound]	inhibited T cells	14.6%	5.4%	3	10 mg/kg	0%	0	24.5%	6.4%	0	14.6%	–	–	–	–	–	–	–
CC(C)C[C@H](NC(=O)[C@H](CC(N)=O)NC(=O)[C@H](C)NC(=O)[C@H](C)N)C(=O)N(C)CCNC(=O)c1cc(Oc2ccc(NC(=O)Nc3ccc(Cl)c(C(F)(F)F)c3)cc2)ccn1 [Compound C1, AANL-Compound a, reference compound] (H-AANL-X1)	–	–	–	1	80 mg/kg	–	–	–	–	–	–	65 mg/kg	stable	96.8%	–	–	–	–
C[C@H](N)C(=O)N[C@@H](C)C(=O)N[C@@H](CC(N)=O)C(=O)Nc1ccc(COC(=O)N(C)CCNC(=O)c2cc(Oc3ccc(NC(=O)Nc4ccc(Cl)c(C(F)(F)F)c4)cc3)ccn2)cc1 [Compound C2, AAN-PABC-Compound a, reference compound]	–	–	–	2	70 mg/kg	–	–	–	–	–	–	60 mg/kg	unstable	89.4%	–	–	–	–
COc1cccc2c1C(=O)c1c(O)c3c(c(O)c1C2=O)C[C@@](O)(C(=O)CO)C[C@@H]3O[C@H]1C[C@H](NC(=O)[C@H](CC(C)C)NC(=O)[C@H](CC(N)=O)NC(=O)[C@H](C)NC(=O)[C@H](C)NC(=O)CCCCCN2C(=O)C=CC2=O)[C@H](O)[C@H](C)O1 [Compound C11, EMC-AANL-Adriamycin, reference compound] ({Hexanoyl(6-maleimido)}-AANL-{Doxorubicin(3'-N)})	–	–	–	2	120 mg/kg	–	–	–	–	–	–	110 mg/kg	–	–	96.5, stable	96.5, stable %	–	–
CC(NC(=O)C(C)NC(=O)[C@H](O)[C@H](O)[C@@H](O[C@@H]1O[C@H](CO)[C@H](O)[C@H](O)[C@H]1O)[C@H](O)CO)C(=O)NC(CC(N)=O)C(=O)Nc1ccc(COC(=O)Nc2nccc(-c3sc(C(C)(C)C)nc3-c3cccc(NS(=O)(=O)c4c(F)cccc4F)c3F)n2)cc1 (stereo partly shown) [Compound S4]	–	70.7%	15.8%	2	300 mg/kg	–	–	–	11.9%	2	58.9%	280 mg/kg	–	–	–	–	0%	–
CC(NC(=O)C(C)NC(=O)[C@H](O)[C@H](O)[C@@H](O[C@@H]1O[C@H](CO)[C@H](O)[C@H](O)[C@H]1O)[C@H](O)CO)C(=O)NC(CC(N)=O)C(=O)Nc1ccc(COC(=O)Nc2c(-c3nc4ccc(N5CCN(C)CC5)cc4[nH]3)c(=O)[nH]c3cccc(F)c23)cc1 (stereo partly shown) [Compound S5]	–	76.7%	15.3%	2	320 mg/kg	–	–	–	11.5%	1	60.1%	310 mg/kg	–	–	–	–	0%	–
COc1cccc2c1C(=O)c1c(O)c3c(c(O)c1C2=O)C[C@](O)(C(=O)CO)CC3OC1C[C@H](NC(=O)OCc2ccc(NC(=O)C(CC(N)=O)NC(=O)C(C)NC(=O)C(NC(=O)[C@H](O)[C@H](O)[C@@H](O[C@@H]3O[C@H](CO)[C@H](O)[C@H](O)[C@H]3O)[C@H](O)CO)C(C)C)cc2)[C@H](O)[C@H](C)O1 (stereo partly shown) [Compound S9]	–	–	–	2	120 mg/kg	–	–	–	13.8%	3	66.7%	100 mg/kg	–	–	–	–	0%	–
CC(NC(=O)C(NC(=O)[C@H](O)[C@H](O)[C@@H](O[C@@H]1O[C@H](CO)[C@H](O)[C@H](O)[C@H]1O)[C@H](O)CO)C(C)C)C(=O)NC(CC(N)=O)C(=O)Nc1ccc(COC(=O)Nc2nccc(-c3sc(C(C)(C)C)nc3-c3cccc(NS(=O)(=O)c4c(F)cccc4F)c3F)n2)cc1 (stereo partly shown) [Compound S10]	–	–	–	1	320 mg/kg	–	–	–	15.9%	2	76.7%	310 mg/kg	–	–	–	–	0%	–
CC(NC(=O)C(NC(=O)[C@H](O)[C@H](O)[C@@H](O[C@@H]1O[C@H](CO)[C@H](O)[C@H](O)[C@H]1O)[C@H](O)CO)C(C)C)C(=O)NC(CC(N)=O)C(=O)Nc1ccc(COC(=O)Nc2c(-c3nc4ccc(N5CCN(C)CC5)cc4[nH]3)c(=O)[nH]c3cccc(F)c23)cc1 (stereo partly shown) [Compound S11]	–	–	–	2	330 mg/kg	–	–	–	15.1%	2	69.3%	300 mg/kg	–	–	–	–	0%	–
CC(NC(=O)C(NC(=O)[C@H](O)[C@H](O)[C@@H](O[C@@H]1O[C@H](CO)[C@H](O)[C@H](O)[C@H]1O)[C@H](O)CO)C(C)C)C(=O)NC(CC(N)=O)C(=O)Nc1ccc(COC(=O)N2CC(C)(C)c3ccc(NC(=O)c4cccnc4NCc4ccncc4)cc32)cc1 (stereo partly shown) [Compound S12]	–	–	–	1	300 mg/kg	–	–	–	10.8%	1	55.5%	290 mg/kg	–	–	–	–	0%	–
COc1cccc2c1C(=O)c1c(O)c3c(c(O)c1C2=O)C[C@](O)(C(=O)CO)CC3OC1C[C@H](NC(=O)OCc2ccc(NC(=O)C(CC(N)=O)NC(=O)C(C)NC(=O)C(NC(=O)[C@H](O)[C@H](O)[C@@H](O[C@@H]3O[C@H](CO)[C@H](O)[C@H](O)[C@H]3O)[C@H](O)CO)C(C)O)cc2)[C@H](O)[C@H](C)O1 (stereo partly shown) [Compound S15]	–	–	–	1	100 mg/kg	–	–	–	15.3%	1	70.2%	90 mg/kg	–	–	–	–	0%	–
C[C@H](NC(=O)[C@@H](NC(=O)[C@H](O)[C@@H](O)[C@H](O[C@@H]1O[C@H](CO)[C@H](O)[C@H](O)[C@H]1O)[C@H](O)CO)[C@@H](C)O)C(=O)N[C@@H](CC(N)=O)C(=O)Nc1ccc(COC(=O)Nc2nccc(-c3sc(C(C)(C)C)nc3-c3cccc(NS(=O)(=O)c4c(F)cccc4F)c3F)n2)cc1 [Compound S16]	–	–	–	2	300 mg/kg	–	–	–	15.5%	2	71.6%	–	–	–	–	–	0%	290 mg/kg
CC(NC(=O)C(NC(=O)[C@H](O)[C@H](O)[C@@H](O[C@@H]1O[C@H](CO)[C@H](O)[C@H](O)[C@H]1O)[C@H](O)CO)C(C)O)C(=O)NC(CC(N)=O)C(=O)Nc1ccc(COC(=O)Nc2c(-c3nc4ccc(N5CCN(C)CC5)cc4[nH]3)c(=O)[nH]c3cccc(F)c23)cc1 (stereo partly shown) [Compound S17]	–	–	–	1	310 mg/kg	–	–	–	16.2%	1	70.9%	290 mg/kg	–	–	–	–	0%	–
CC(NC(=O)C(NC(=O)[C@H](O)[C@H](O)[C@@H](O[C@@H]1O[C@H](CO)[C@H](O)[C@H](O)[C@H]1O)[C@H](O)CO)C(C)O)C(=O)NC(CC(N)=O)C(=O)Nc1ccc(COC(=O)N2CC(C)(C)c3ccc(NC(=O)c4cccnc4NCc4ccncc4)cc32)cc1 (stereo partly shown) [Compound S18]	–	–	–	2	290 mg/kg	–	–	–	15.6%	2	71.7%	280 mg/kg	–	–	–	–	0%	–
